Measurements taken from ChEMBL document CHEMBL1909046, “DrugMatrix in vitro pharmacology data”.

Assays:
[1] = DRUGMATRIX: Calcium Channel Type L, Benzothiazepine radioligand binding (ligand: [3H] Diltiazem); assay type: cell membranes, Rattus norvegicus, Wistar, Brain, Membrane; conditions: Not Active = under 50% inhibition at 10 µM
[2] = biological target: 5-hydroxytryptamine receptor 6 (Homo sapiens, UniProt P50406); assay type: cell membranes, HeLa, Membrane; conditions: hela; further: in other assays of this panel Not Active means under 50% inhibition at 10 µM
5-hydroxytryptamine receptor 6, sequence (P50406 whole entry): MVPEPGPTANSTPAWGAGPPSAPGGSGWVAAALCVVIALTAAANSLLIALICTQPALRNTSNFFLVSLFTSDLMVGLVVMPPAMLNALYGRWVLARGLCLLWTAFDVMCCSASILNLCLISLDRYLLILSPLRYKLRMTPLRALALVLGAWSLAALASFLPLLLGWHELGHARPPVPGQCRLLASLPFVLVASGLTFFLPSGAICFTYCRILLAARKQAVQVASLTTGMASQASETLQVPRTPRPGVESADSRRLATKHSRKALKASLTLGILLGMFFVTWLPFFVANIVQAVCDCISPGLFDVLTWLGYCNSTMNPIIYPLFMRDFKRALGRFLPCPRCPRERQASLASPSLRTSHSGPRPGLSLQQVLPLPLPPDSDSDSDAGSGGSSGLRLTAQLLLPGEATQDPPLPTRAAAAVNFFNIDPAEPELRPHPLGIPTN

[3] = biological target: Sigma non-opioid intracellular receptor 1 (Homo sapiens, UniProt Q99720); test: DRUGMATRIX: Sigma1 radioligand binding (ligand: [3H] Haloperidol); assay type: cell membranes, Jurkat, Membrane; conditions: jurkat; Not Active = under 50% inhibition at 10 µM
Sigma non-opioid intracellular receptor 1, sequence (Q99720 whole entry): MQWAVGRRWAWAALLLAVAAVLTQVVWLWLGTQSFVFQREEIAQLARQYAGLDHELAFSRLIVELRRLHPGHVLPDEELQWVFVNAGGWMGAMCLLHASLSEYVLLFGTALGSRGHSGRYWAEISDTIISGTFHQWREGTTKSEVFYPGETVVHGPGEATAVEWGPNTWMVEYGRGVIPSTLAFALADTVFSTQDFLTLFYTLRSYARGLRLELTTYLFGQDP

[4] = DRUGMATRIX: Sigma2 radioligand binding (ligand: [3H] Ifenprodil); assay type: cell membranes, Rattus norvegicus, Wistar, Brain, Membrane; conditions: Not Active = under 50% inhibition at 10 µM
Substance-K receptor = biological target: T1, Substance-K receptor (Homo sapiens, UniProt P21452); assay type: cell membranes, CHO, Membrane; conditions: cho; further: in other assays of this panel Not Active means under 50% inhibition at 10 µM
T1 sequence (P21452 whole entry): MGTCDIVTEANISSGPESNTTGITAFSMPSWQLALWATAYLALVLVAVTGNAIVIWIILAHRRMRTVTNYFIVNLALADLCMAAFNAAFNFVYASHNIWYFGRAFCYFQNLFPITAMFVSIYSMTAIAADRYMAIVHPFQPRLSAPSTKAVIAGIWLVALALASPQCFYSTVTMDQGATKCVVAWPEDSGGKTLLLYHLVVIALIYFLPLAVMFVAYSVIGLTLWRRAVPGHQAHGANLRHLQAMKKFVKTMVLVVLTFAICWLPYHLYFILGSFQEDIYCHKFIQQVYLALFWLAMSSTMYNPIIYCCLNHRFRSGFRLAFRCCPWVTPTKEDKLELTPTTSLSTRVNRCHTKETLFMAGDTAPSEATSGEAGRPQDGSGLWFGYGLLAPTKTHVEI

[5] = DRUGMATRIX: Calcium Channel Type L, Phenylalkylamine radioligand binding (ligand: [3H] (-)-Desmethoxyverapamil (D-888)); assay type: cell membranes, Rattus norvegicus, Wistar, Brain, Membrane; conditions: Not Active = under 50% inhibition at 10 µM
[6] = DRUGMATRIX: Glutamate, NMDA, Phencyclidine radioligand binding (ligand: [3H] TCP); assay type: cell membranes, Rattus norvegicus, Wistar, Cerebral cortex, Membrane; conditions: Not Active = under 50% inhibition at 10 µM
Glycine receptor = Glycine receptor (Rattus norvegicus, UniProt P22771+P24524+P07727+P20781); assay type: cell membranes, Wistar, Spinal cord, Membrane; further: in other assays of this panel Not Active means under 50% inhibition at 10 µM
[7] = biological target: T2, Polyunsaturated fatty acid lipoxygenase ALOX15 (Oryctolagus cuniculus, UniProt P12530); test: biochemical; assay type: tissue-based, Reticulocytes;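 further: inhibition of 15-lipoxygenase enzyme activity measured with linoleic acid as the substrate; in other assays of this panel Not Active means under 50% inhibition at 10 µM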
T2 sequence (P12530 whole entry): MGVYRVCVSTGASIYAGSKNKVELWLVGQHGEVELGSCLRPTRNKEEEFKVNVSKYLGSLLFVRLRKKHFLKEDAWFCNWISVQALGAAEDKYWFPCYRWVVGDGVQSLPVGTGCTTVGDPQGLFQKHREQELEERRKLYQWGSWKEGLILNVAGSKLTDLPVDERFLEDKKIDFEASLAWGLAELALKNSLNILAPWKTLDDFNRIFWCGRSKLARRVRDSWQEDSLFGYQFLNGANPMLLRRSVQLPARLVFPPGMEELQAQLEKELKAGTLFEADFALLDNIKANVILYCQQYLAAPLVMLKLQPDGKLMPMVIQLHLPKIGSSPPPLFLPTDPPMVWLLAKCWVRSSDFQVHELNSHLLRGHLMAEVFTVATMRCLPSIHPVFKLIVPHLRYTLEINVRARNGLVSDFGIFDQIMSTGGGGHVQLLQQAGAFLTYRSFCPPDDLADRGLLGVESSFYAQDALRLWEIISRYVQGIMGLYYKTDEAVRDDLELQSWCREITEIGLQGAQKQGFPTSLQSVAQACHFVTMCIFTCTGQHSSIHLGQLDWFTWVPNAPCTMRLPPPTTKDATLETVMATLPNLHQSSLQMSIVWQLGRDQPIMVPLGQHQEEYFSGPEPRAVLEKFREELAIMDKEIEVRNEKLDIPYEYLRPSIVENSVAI

[8] = DRUGMATRIX: Phosphodiesterase PDE3 enzyme inhibition (substrate: [3H]cAMP + cAMP); assay type: tissue-based, Homo sapiens; conditions: platelet; Not Active = under 50% inhibition at 10 µM
[9] = DRUGMATRIX: Phosphodiesterase PDE4 enzyme inhibition (substrate: [3H]cAMP + cAMP); conditions: u-937, Not Active = under 50% inhibition at 10 µM
[10] = biological target: Tyrosine-protein kinase Lck (Homo sapiens, UniProt P06239); test: DRUGMATRIX: Protein Tyrosine Kinase, LCK enzyme inhibition (substrate: Poly(Glu:Tyr)); assay type: cell-based, Insect cells; conditions: Not Active = under 50% inhibition at 10 µM
Tyrosine-protein kinase Lck, sequence (P06239 whole entry): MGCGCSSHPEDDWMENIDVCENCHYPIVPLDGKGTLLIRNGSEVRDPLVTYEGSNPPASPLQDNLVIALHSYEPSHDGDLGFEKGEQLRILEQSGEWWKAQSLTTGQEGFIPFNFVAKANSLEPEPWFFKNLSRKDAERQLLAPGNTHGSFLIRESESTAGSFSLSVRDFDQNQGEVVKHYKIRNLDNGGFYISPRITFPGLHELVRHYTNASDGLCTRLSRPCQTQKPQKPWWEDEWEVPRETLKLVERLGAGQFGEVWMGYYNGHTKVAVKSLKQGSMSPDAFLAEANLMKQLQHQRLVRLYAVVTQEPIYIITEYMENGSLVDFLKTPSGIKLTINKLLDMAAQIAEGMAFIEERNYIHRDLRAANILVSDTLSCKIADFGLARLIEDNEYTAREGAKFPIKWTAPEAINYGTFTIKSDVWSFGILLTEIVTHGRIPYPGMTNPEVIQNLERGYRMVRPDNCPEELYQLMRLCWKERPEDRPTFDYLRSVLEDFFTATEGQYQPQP

[11] = DRUGMATRIX: Purinergic P2X radioligand binding (ligand: [3H] alpha, beta-Methylene-ATP); assay type: cell membranes, Oryctolagus cuniculus, New Zealand albino, Urinary bladder, Membrane; conditions: Not Active = under 50% inhibition at 10 µM
[12] = biological target: T3, 5-hydroxytryptamine receptor 1A (Rattus norvegicus, UniProt P19327); assay type: cell membranes, CHO-K1, Membrane; conditions: cho-k1; further: in other assays of this panel Not Active means under 50% inhibition at 10 µM
T3 sequence (P19327 whole entry): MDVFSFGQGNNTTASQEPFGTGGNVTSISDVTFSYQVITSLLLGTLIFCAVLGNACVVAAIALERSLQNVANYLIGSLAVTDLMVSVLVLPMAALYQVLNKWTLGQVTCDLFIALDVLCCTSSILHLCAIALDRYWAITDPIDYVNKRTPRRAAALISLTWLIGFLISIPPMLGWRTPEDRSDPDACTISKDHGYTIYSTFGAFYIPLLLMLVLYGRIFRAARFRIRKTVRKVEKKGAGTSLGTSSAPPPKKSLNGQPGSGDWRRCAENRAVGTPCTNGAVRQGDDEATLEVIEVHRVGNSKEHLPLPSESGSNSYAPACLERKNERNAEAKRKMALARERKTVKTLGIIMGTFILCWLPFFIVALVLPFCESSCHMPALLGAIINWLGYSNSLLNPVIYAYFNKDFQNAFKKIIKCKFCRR

SMILES | IC50 [1] | Ki [1] | IC50 [2] | IC50 [3] | IC50 [4] | Ki [4] | IC50 (Substance-K receptor) | IC50 [5] | Ki [5] | IC50 [6] | Ki [6] | IC50 (Glycine receptor) | IC50 ([7]; reticulocytes) | IC50 [8] | Ki [8] | IC50 [9] | Ki [9] | IC50 [11] | Ki [11] | IC50 [12] | further results
CN(N=O)C(=O)N[C@@H](C=O)[C@@H](O)[C@H](O)[C@H](O)CO [STREPTOZOCIN] | Not Active | Not Active | Not Active | Not Active | Not Active | Not Active | Not Active | Not Active | Not Active | Not Active | Not Active | Not Active | Not Active | Not Active | Not Active | Not Active | Not Active | Not Active | Not Active | Not Active | IC50 ([10]; insect cells): Not Active
NC(=O)c1ncn([C@@H]2O[C@H](CO)[C@@H](O)[C@H]2O)n1 [RIBAVIRIN] | Not Active | Not Active | Not Active | Not Active | Not Active | Not Active | Not Active | Not Active | Not Active | Not Active | Not Active | Not Active | Not Active | Not Active | Not Active | Not Active | Not Active | Not Active | Not Active | Not Active | IC50 ([10]; insect cells): Not Active
Oc1c(I)cc(I)c2cccnc12 [IODOQUINOL] | Not Active | Not Active | Not Active | Not Active | Not Active | Not Active | Not Active | Not Active | Not Active | Not Active | Not Active | Not Active | Not Active | Not Active | Not Active | Not Active | Not Active | Not Active | Not Active | Not Active | IC50 ([10]; read-out: IC50): 2460 nM
CN1[C@@H]2CC[C@H]1C[C@@H](OC(=O)c1c[nH]c3ccccc13)C2 [TROPISETRON] | Not Active | Not Active | Not Active | Not Active | Not Active | Not Active | Not Active | Not Active | Not Active | Not Active | Not Active | Not Active | Not Active | Not Active | Not Active | Not Active | Not Active | Not Active | Not Active | Not Active | IC50 ([10]; insect cells): Not Active
NC(=O)c1ccccc1O [SALICYLAMIDE] | Not Active | Not Active | Not Active | Not Active | Not Active | Not Active | Not Active | Not Active | Not Active | Not Active | Not Active | Not Active | Not Active | Not Active | Not Active | Not Active | Not Active | Not Active | Not Active | Not Active | IC50 ([10]; insect cells): Not Active
COC(=O)C1=C(C)NC(C)=C(C(=O)OC)C1c1ccccc1[N+](=O)[O-] [NIFEDIPINE] |  |  | Not Active | Not Active | Not Active | Not Active | Not Active |  |  | Not Active | Not Active | Not Active |  | Not Active | Not Active |  |  | Not Active | Not Active | Not Active | IC50 ([1]; read-out: IC50): 8.67 nM; Ki ([1]; read-out: Ki): 7.71 nM; IC50 ([5]; read-out: IC50): 878 nM; Ki ([5]; read-out: Ki): 853 nM; IC50 ([7]; read-out: IC50): 15100 nM; IC50 ([9]; read-out: IC50): 44200 nM; IC50 ([10]; insect cells): Not Active
O=[N+]([O-])c1cc([As](=O)(O)O)ccc1O [ROXARSONE] | Not Active | Not Active | Not Active | Not Active | Not Active | Not Active | Not Active | Not Active | Not Active | Not Active | Not Active | Not Active | Not Active | Not Active | Not Active | Not Active | Not Active | Not Active | Not Active | Not Active | Ki [2]: Not Active; Ki [3]: Not Active; Ki (Substance-K receptor): Not Active; Ki (Glycine receptor): Not Active; Ki ([7]; reticulocytes): Not Active; IC50 ([10]; insect cells): Not Active; Ki ([10]; insect cells): Not Active; Ki [12]: Not Active
NCCCC[C@H](N[C@@H](CCc1ccccc1)C(=O)O)C(=O)N1CCC[C@H]1C(=O)O [LISINOPRIL ANHYDROUS] | Not Active | Not Active | Not Active | Not Active | Not Active | Not Active | Not Active | Not Active | Not Active | Not Active | Not Active | Not Active | Not Active | Not Active | Not Active | Not Active | Not Active | Not Active | Not Active | Not Active | IC50 ([10]; insect cells): Not Active
